In patent US8673850B2, “PCSK9 inhibitors and methods of use thereof” (Institut de Recherches Cliniques de Montreal, priority 2008, dated 2014):

Experiments:
[1] = system: PCSK9-induced LDLR degradation; test: LDLR Western blot of HepG2 cells incubated with PCSK9 conditioned media with or without purified AnxA2; type: cell-based, human
Description: (§1) HepG2, HuH7, COS-1, BSC40 and HEK293 cell were grown in Dulbecco's modified Eagle's medium (DMEM) with 10% fetal bovine serum (FBS; Gibco), whereas CHO-K1 and CHO-K1 mutant Pgsd-677 cells that lack heparan sulfate proteoglycans^26 were grown in Ham's F12:DMEM (50:50) media with 10% FBS. Y1 mouse adrenal cells were grown in F12K medium with 15% horse serum and 2.5% FBS. All cells were maintained at 37° C. under 5% CO2. At 80-90% confluence, HuH7 and CHO-K1 cells were transiently transfected with Lipofectamine™ 2000 (Invitrogen), HEK293 cells were transfected with Effectene™ (Qiagen) and HepG2 cells were transfected with Fugene™ HD (Roche). […] For analysis of the various AnxA2 mutants in HEK293 cells, 24 h post-transfection, the cells were washed and then incubated for another 24 h in complete medium containing 50 μM of the proteasome inhibitor ALLN (Calbiochem). Stable transfectants of shRNA-AnxA2 were obtained in HuH7 cells following puromycin selection.
Western blotting experiments were made on samples that were reduced in Laemmli buffer, heated and resolved on 8% glycine SDS-PAGE gels. Separated proteins were then electro-transferred onto nitrocellulose, and probed with HRP-conjugated anti-V5 or anti-HA tags or with primary antibodies. […] Quantitation of band intensity was done with the ImageJ™ software version 1.37 (Wayne Rasband, National Institutes of Health, Bethesda, Md.). […]

PCSK9 = biological target: T1, PCSK9 (Homo sapiens, UniProt Q8NBP7); test: Cell surface PCSK9 immunofluorescence on CHO-K1 cells overexpressing the LDLR; type: cell-based; settings: 1 μg purified PCSK9, 4° C., 5 or 20 μg purified AnxA2
T1 construct: purchased Bristol-Myers Squibb (gift, not bought); host or cells: added to CHO-K1 cells overexpressing the LDLR
Description: (§2) For immuno-cytochemistry, cells were plated on glass bottom culture dishes (MatTek) and then transfected the following day. Twenty-four hours post-transfection, the cells were washed with DMEM, incubated for an additional 20 h without serum and then washed 3 times with PBS. Cell surface labelings were made under non-permeabilizing conditions by fixation with 3.7% formaldehyde for 10 min at room temperature. Cells were then washed in PBS, incubated for 5 min in 150 mM glycine, washed once in PBS and incubated for 30 min in 1% bovine serum albumin in PBS. Cells were incubated overnight at 4° C. with primary antibodies and then washed 4× with PBS. […] After several washes in PBS, cells were covered with 5% 1,4-diazabicyclo[2.2.2]octane (Sigma) in PBS/glycerol 90% and immunofluorescence analyses were performed with a Zeiss LSM-510 confocal microscope.
Finally, addition of 1 μg of purified PCSK9 to CHO-K1 cells overexpressing the LDLR at 4° C. […] Therefore, it was deduced that because of its interaction with the CHRD AnxA2 reduces the level of cell surface PCSK9 likely bound to the LDLR. Without being bound by this hypothesis, PCSK9's reduced binding to LDLR induces a more rapid internalization of PCSK9 into the cell.

PCSK9-V5 [2] = biological target: T2, PCSK9-V5 (Homo sapiens, UniProt Q8NBP7); test: Hexa-His pull-down assay; type: binding; parameters: made in house; host or cells: CHO-K1 cells (conditioned medium, not purified); settings: 20 μg protein immobilized on cobalt chelate resin
Description: 20 μg of purified AnxA2-(His)6 or AnxA1-(His)6 or no proteins (for negative control) were immobilized onto a cobalt chelate resin (Thermo Scientific). The resin was then washed several times with 40 mM immidazole and incubated overnight at 4° C. with 800 μl of conditioned media from PCSK9-V5-transfected CHO-K1 cells containing 40 mM immidazole. The resin was then washed several times with immidazole (40 mM), heated in reducing Laemmli sample buffer and centrifuged. Supernatants were analyzed by Western blot as described above using the anti-V5-HRP or anti-His-HRP antibodies.
Target sequence in this assay (Q8NBP7 153-692): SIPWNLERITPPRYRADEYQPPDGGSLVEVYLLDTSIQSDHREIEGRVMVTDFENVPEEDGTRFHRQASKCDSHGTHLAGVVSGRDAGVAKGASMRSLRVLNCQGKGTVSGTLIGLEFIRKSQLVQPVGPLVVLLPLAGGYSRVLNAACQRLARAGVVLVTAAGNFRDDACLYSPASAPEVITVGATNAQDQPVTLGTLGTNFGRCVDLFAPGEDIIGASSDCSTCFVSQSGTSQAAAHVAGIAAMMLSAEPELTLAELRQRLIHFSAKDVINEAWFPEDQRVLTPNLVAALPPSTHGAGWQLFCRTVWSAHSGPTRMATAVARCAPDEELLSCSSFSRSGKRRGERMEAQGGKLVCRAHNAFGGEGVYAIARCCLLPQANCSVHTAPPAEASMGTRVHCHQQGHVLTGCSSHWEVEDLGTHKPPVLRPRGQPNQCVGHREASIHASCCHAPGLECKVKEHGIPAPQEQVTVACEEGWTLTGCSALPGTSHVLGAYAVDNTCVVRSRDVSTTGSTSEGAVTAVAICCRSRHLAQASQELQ
Target sequence in this assay (Q8NBP7 31-152 partner limits assumed): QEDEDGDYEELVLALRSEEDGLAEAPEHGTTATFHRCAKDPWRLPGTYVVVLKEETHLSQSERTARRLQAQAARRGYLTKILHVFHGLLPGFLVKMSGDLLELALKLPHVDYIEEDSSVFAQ

PCSK9-V5 [3] = biological target: T2, PCSK9-V5; test: Far Western blot with PCSK9-V5 conditioned media; type: binding; parameters: made in house; host or cells: CHO-K1 cells (conditioned medium, not purified)
Description: Lysates (20 to 30 μg protein), media or purified AnxA2-(His)6 were heated in reducing or non-reducing Laemmli sample buffer, resolved by SDS-PAGE on 8% glycine gels and electro-transferred onto nitrocellulose membranes (GE Healthcare). Following 1 h incubation in 5% skim milk in Tris-Buffered Saline-0.1% Tween (TBST), membranes where incubated with conditioned media of CHO-K1 cells overexpressing either an empty vector (pIRES-V5), PC5A-V5, CHRD-V5, pIRES-D374Y, PCSK9-V5 or its V5-tagged mutants, or incubated with purified AnxA2-(His)6 for 3 h at room temperature. […] For competition experiments, 10 μg of His-tagged PCSK9 or CHRD were added to the PCSK9-V5 media before Far Western blotting. For PCSK9 binding requirements with the ˜33 kDa protein, 1M NaCl, 10 mg/ml heparin, 1M NaCl+10 mg/ml heparin, or 100 mM EDTA were added to the PCSK9-V5 conditioned media used for Far Western blotting.
Wild type human Annexin A2 (AnxA2) (ATCC #MGC-2257) and Annexin A1 (AnxA1) (ATCC #MGC-5095) were purchased from ATCC and subcloned into NheI/SacI digested pIRES2-EGFP vector. An HA epitope ([…]) was fused by PCR mutagenesis at the C-terminus of both AnxA1 and AnxA2. Two-steps PCRs were performed on AnxA2 cDNA to introduce point mutations (N62Q; S64A; K28S+D34N+E36S; R37S+E43H+K47M; 77RRTKK (SEQ ID NO: 26)>AATAK (SEQ ID NO: 27); ^77RRTKK (SEQ ID NO: 26)>AATAA (SEQ ID NO: 28); ^77RRTKKELASALK (SEQ ID NO: 29)>^77AATAAELASALA (SEQ ID NO: 30); 80KKELA (SEQ ID NO: 31)>GKPLD (SEQ ID NO: 32)), or amino acid (aa) deletions (Δ2-24, aa 2-24; ΔR1, aa 37-108; ΔR2, aa 109-192; ΔR3, aa 193-268; ΔR4, aa 269-339; Δ25-36, aa 25-36; Δ37-48, aa 37-48; Δ49-61, aa 49-61; Δ62-75, aa 62-75; Δ37-66, aa 37-66; Δ74-88, aa 74-88; Δ82-88, aa 82-88; Δ89-101, aa 89-101; Δ102-108, aa 102-108) into pIRES2-AnxA2-EGFP vector (see Table 3 above). In addition, using PCR, the AnxA2 segment aa 49-75 was swapped with the corresponding AnxA1 segment aa 58-84 [AnxA1 (aa 58-84)>AnxA2 (aa 49-75)]. Similar swaps were performed for the corresponding AnxA2 sequence with AnxA1 (AnxA1>AnxA2: aa 25-27; aa 28-30; aa 31-33; aa 34-36; aa 37-39; aa 40-42; aa 43-45; aa 46-48; aa 49-75; aa 49-61; aa 62-75). All final cDNA constructs were verified by DNA sequencing.
Target sequence in this assay (Q8NBP7 153-692): as the sequence (Q8NBP7 153-692) above
Target sequence in this assay (Q8NBP7 31-152 partner limits assumed): as the sequence (Q8NBP7 31-152 partner limits assumed) above

[4] = system: PCSK9-enhanced LDLR degradation; test: LDLR Western blot of CHO-K1 cells co-transfected with PCSK9 and AnxA2; type: cell-based; settings: PCSK9 alone reduced LDLR by ~30%
Description: as §1
(§3) Western blotting experiments were made on samples that were reduced in Laemmli buffer, heated and resolved on 8% glycine SDS-PAGE gels. Separated proteins were then electro-transferred onto nitrocellulose, and probed with HRP-conjugated anti-V5 or anti-HA tags or with primary antibodies. […] Quantitation of band intensity was done with the ImageJ™ software version 1.37 (Wayne Rasband, National Institutes of Health, Bethesda, Md.).

LDLR [5] = test: LDLR Western blot of HepG2 cells transfected with AnxA2; type: cell-based, human
Description: as §1, §3

LDLR [6] = test: Cell surface LDLR immunofluorescence of transfected HepG2 cells; type: cell-based, human
Description: as §2

LDLR [7] = test: LDLR Western blot of transfected HEK293 cells; type: cell-based, human; settings: HEK293 cells (negligible PCSK9), with or without p11
Description: as §1, §3

PCSK9-LDLR interaction = PCSK9-LDLR interaction (Homo sapiens, UniProt Q8NBP7); test: AlphaScreen PCSK9-LDLR interaction assay; type: binding
Description: AlphaScreen® (Perkin Elmer) streptavidin donor beads were coated with purified biotin-conjugated PCSK9 and AlphaScreen® nickel chelate acceptor beads were coated with purified His6-conjugated LDLR ectodomain. Competition in the AlphaScreen® PCSK9-LDLR interaction assay was measured, in the presence of increasing concentrations of AnxA2-derived peptides, as a reduction of fluorescence.

PCSK9-V5 [8] = biological target: T2, PCSK9-V5; test: Co-immunoprecipitation in co-transfected CHO-K1 cells; type: binding; parameters: expressed in transfected cells; host or cells: CHO-K1 cells co-transfected with AnxA1-HA, AnxA2-HA or AnxA2-HA and p11; settings: co-expression in CHO-K1 cells
Description: For immunoprecipitation cell lysates were incubated overnight at 4° C. with anti-V5-agarose beads (Sigma) and washed 5 times with cold lysis buffer.
Target sequence in this assay (Q8NBP7 153-692): as the sequence (Q8NBP7 153-692) above

Chain of PCSK9-LDLR interaction (Q8NBP7 153-692): as above
Chain of PCSK9-LDLR interaction (Q8NBP7 31-152 partner limits assumed): as the sequence (Q8NBP7 31-152 partner limits assumed) above
T1 sequence (Q8NBP7 153-692): as the sequence (Q8NBP7 153-692) above
T1 sequence (Q8NBP7 31-152 partner limits assumed): as the sequence (Q8NBP7 31-152 partner limits assumed) above

## AnxA2-(His)6: purified His-tagged Annexin A2 purchased from EMD biosciences
[1]; HepG2, media of non-transfected cells, endogenous PCSK9
  level of LDLR: increased the level of LDLR
[1]; HepG2, ~20 h, PCSK9 conditioned media plus 5 ug/ml purified AnxA2-(His)6, ~30% without AnxA2
  PCSK9-enhanced LDLR degradation: ~10%
PCSK9
  cell surface localization of PCSK9: reduced
PCSK9-V5 [2]
  PCSK9-V5 bound in pull-down: bound PCSK9 and its furin cleaved form (PCSK9-Δ218)
PCSK9-V5 [3]; reducing and non-reducing conditions
  PCSK9 binding to purified protein by Far Western blot: binds in a dose-dependant manner

## AnxA2: wild type human Annexin A2 isoform 2, expressed in cells by transfection
[4]
  LDLR level: returned to that of the control
LDLR [5]; HepG2, AnxA2 co-transfected with p11
  increase of LDLR level: ~90%
LDLR [5]; HepG2 transfected with AnxA2 alone
  increase of LDLR level: ~40%
LDLR [6]; HepG2, AnxA2 alone or together with p11, vs pIRES control
  labelling intensity of cell surface LDLR: strong increase
LDLR [6]; HepG2, co-expression with AnxA2
  LDLR-lowering effect of WT-PCSK9 or PCSK9-D374Y: prevented their LDLR-lowering effect
LDLR [7]
  levels of endogenous LDLR: None of these treatments affected the levels of endogenous LDLR
PCSK9-V5 [3]; lysates of cells overexpressing the construct
  PCSK9-V5 binding by Far Western blot: specifically binds

## GSVKAYTNFDAERDALNIETAIKTKGVDEVTIVNILTNRSNAQRQDIAFAYQRRTKKELASALKSALSGHLET [No 896970, 73-mer AnxA2 R1 peptide extending from amino acids 25 to 97]
PCSK9-LDLR interaction; 10 uM (not shown)
  inhibition of the PCSK9-LDLR interaction: up to 90%

## peptide extending from amino acid 49 to 97: shorter AnxA2-derived peptide extending from amino acid 49 to 97 (KGVDEVTIVNILTNRSNAQRQDIAFAYQRRTKKELASALKSALSGHLET; HOMO SAPIENS)
PCSK9-LDLR interaction
  inhibitory activity on the PCSK9-LDLR ectodomain interaction: inhibits the interaction between PCSK9 and the ectodomain of LDLR however to a lesser extent

B1: AnxA1-(His)6: purified His-tagged Annexin A1 purchased from EMD biosciences (protein)
chain: MAMVSEFLKQAWFIENEEQEYVQTVKSSKGGPGSAVSPYPTFNPSSDVAALHKAIMVKGVDEATIIDILTKRNNAQRQQIKAAYLQETGKPLDETLKKALTGHLEEVVLALLKTPAQFDADELRAAMKGLGTDEDTLIEILASRTNKEIRDINRVYREELKRDLAKDITSDTSGDFRNALLSLAKGDRSEDFGVNEDLADSDARALYEAGERRKGTDVNVFNTILTTRSYPQLRRVFQKYTKYSKHDMNKVLDLELKGDIEKCLTAIVKCATSKPAFFAEKLHQAMKGVGTRHKALIRIMVSRSEIDMNDIKAFYQKMYGISLCQAILDETKGDYEKILVALCGGNHHHHHH
PCSK9-V5 [2]
  PCSK9-V5 bound in pull-down: does not

B2: AnxA1: human Annexin A1, closely related family member used as control (protein, UniProt P04083 2-346, looked up)
Annexin A1: AMVSEFLKQAWFIENEEQEYVQTVKSSKGGPGSAVSPYPTFNPSSDVAALHKAIMVKGVDEATIIDILTKRNNAQRQQIKAAYLQETGKPLDETLKKALTGHLEEVVLALLKTPAQFDADELRAAMKGLGTDEDTLIEILASRTNKEIRDINRVYREELKRDLAKDITSDTSGDFRNALLSLAKGDRSEDFGVNEDLADSDARALYEAGERRKGTDVNVFNTILTTRSYPQLRRVFQKYTKYSKHDMNKVLDLELKGDIEKCLTAIVKCATSKPAFFAEKLHQAMKGVGTRHKALIRIMVSRSEIDMNDIKAFYQKMYGISLCQAILDETKGDYEKILVALCGGN
LDLR [7]
  levels of endogenous LDLR: None of these treatments affected the levels of endogenous LDLR
PCSK9-V5 [8]
  co-immunoprecipitation with PCSK9-V5: not
